Test results reported in patent US6403343B2, “Method of producing a taxane-type diterpene and a method of obtaining cultured cells which produce the taxane-type dilterpene at a high rate” (Mitsui Chemicals, Inc., priority 1993, dated 2002).

Tested on: cultured cells of Taxus baccata LINN
Assay: Growth rate and taxane yield, 21-day shake culture of Taxus baccata cells with heavy metal compound, amine, antiethylene agent or Ethrel added
Assay type: cell-based
Procedure: (§1) One gram (fresh weight) of the callus was inoculated to an Erlenmeyer flask containing 20 ml of liquid Woody Plant Medium to which the above-mentioned component was added to give the same concentration and shake culture was carried out with a rotary shaker (amplification of 25 mm, 100 rpm) and the callus was subcultured in every 21 days to accelerate the growth rate thereof.
Then shake culture was carried out at 25° C. for 21 days.
After completing the culture, cultured cells of Taxus baccata LINN were harvested by filtration and lyophilized, then the dry weight was measured to obtain the growth rate thereof. Taxane-type diterpenes were extracted from the dried callus with methanol and the like, and they were determined by comparing with standard taxol, cephalomannine, and baccatin III using high performance liquid chromatography to measure the yields of the taxane-type diterpenes.
as §1
One gram (fresh weight) of the cultured cells thus obtained was inoculated to an Erlenmeyer flask containing 20 ml of liquid Woody Plant Medium to which the above-mentioned component had been added to give the same concentration, then spermidine was added to it as amine to give the final concentration of 10^−9M-1M. Then shake culture was carried out at 25° C. for 21 days.
After completing the culture, cultured cells of Taxus baccata LINN were harvested by filtration and lyophilized, then the dry weight was measured to obtain the growth rate thereof. Taxane-type diterpenes were extracted from the dried cells with methanol and the like, and they were determined by comparing with standard taxol, cephalomannine, and baccatin III using high performance liquid chromatography to measure the yields of the taxane-type diterpene.
One gram (fresh weight) of the callus was inoculated to an Erlenmeyer flask containing 20 ml of liquid Woody Plant Medium to which the above-mentioned component had been added to give the same concentration and shake culture was carried out with a rotary shaker (amplification of 25 mm, 100 rpm) and the callus was subcultured in every 21 days to accelerate the growth rate thereof.
One gram (fresh weight) of the cultured cells thus obtained was inoculated to an Erlenmeyer flask containing 20 ml of liquid Woody Plant Medium to which the above-mentioned component had been added to give the same concentration, and shake culture was carried out at 25° C. for 14 days.

[1] = 2×10^−6 M added 5 times at 4 days' intervals from day 0, total 10^−5 M
[2] = 10^−1 M added at start, 21 days
[3] = 10^−2 M added at start, 21 days
[4] = 10^−3 M added at start, 21 days
[5] = 10^−4 M added at start, 21 days
[6] = 10^−5 M added at start, 21 days
[7] = 10^−5 M added on 7th day, 14 more days
[8] = 10^−5 M added on 14th day, 7 more days
[9] = 10^−5 M added on 18th day, 3 more days
[10] = 10^−5 M at start + methyl jasmonate 10^−4 M on 14th day
[11] = 10^−5 M at start + methyl jasmonate 10^−4 M on 14th day, oxygen 10% in the gas phase
[12] = 10^−5 M at start, oxygen 10% in the gas phase
[13] = 10^−6 M added at start, 21 days
[14] = 10^−7 M added at start, 21 days
[15] = 10^−8 M added at start, 21 days
[16] = 10^−9 M added at start, 21 days

[Cl][Co][Cl] [cobalt chloride]
growth rate (1 M added at start, 21 days): 0.6 times | total yield of taxane (1 M added at start, 21 days): 0 mg/L | yield of baccatin III (1 M added at start, 21 days): 0 mg/L | yield of cephalomannine (1 M added at start, 21 days): 0 mg/L | yield of taxol (1 M added at start, 21 days): 0 mg/L | growth rate [1]: 2.6 times | total yield of taxane [1]: 27.66 mg/L | yield of baccatin III [1]: 5.32 mg/L | yield of cephalomannine [1]: 6.58 mg/L | yield of taxol [1]: 15.76 mg/L | growth rate [2]: 0.8 times | total yield of taxane [2]: 1.08 mg/L | yield of baccatin III [2]: 0.11 mg/L | yield of cephalomannine [2]: 0.42 mg/L | yield of taxol [2]: 0.55 mg/L | growth rate [3]: 1.4 times | total yield of taxane [3]: 2.14 mg/L | yield of baccatin III [3]: 0.44 mg/L | yield of cephalomannine [3]: 0.78 mg/L | yield of taxol [3]: 0.92 mg/L | growth rate [4]: 2.2 times | total yield of taxane [4]: 7.98 mg/L | yield of baccatin III [4]: 1.57 mg/L | yield of cephalomannine [4]: 2.03 mg/L | yield of taxol [4]: 4.38 mg/L | growth rate [5]: 2.7 times | total yield of taxane [5]: 10.02 mg/L | yield of baccatin III [5]: 1.64 mg/L | yield of cephalomannine [5]: 3.46 mg/L | yield of taxol [5]: 4.92 mg/L | growth rate [6]: 3.2 times | total yield of taxane [6]: 28.29 mg/L | yield of baccatin III [6]: 5.68 mg/L | yield of cephalomannine [6]: 6.50 mg/L | yield of taxol [6]: 16.11 mg/L | growth rate [7]: 3.2 times | total yield of taxane [7]: 20.56 mg/L | yield of baccatin III [7]: 4.36 mg/L | yield of cephalomannine [7]: 5.98 mg/L | yield of taxol [7]: 10.22 mg/L | growth rate [8]: 3.1 times | total yield of taxane [8]: 13.48 mg/L | yield of baccatin III [8]: 2.01 mg/L | yield of cephalomannine [8]: 4.37 mg/L | yield of taxol [8]: 7.10 mg/L | growth rate [9]: 2.9 times | total yield of taxane [9]: 3.60 mg/L | yield of baccatin III [9]: 1.17 mg/L | yield of cephalomannine [9]: 1.11 mg/L | yield of taxol [9]: 1.32 mg/L | growth rate [10]: 2.5 times | total yield of taxane [10]: 62.78 mg/L | yield of baccatin III [10]: 23.00 mg/L | yield of cephalomannine [10]: 9.46 mg/L | yield of taxol [10]: 30.32 mg/L | growth rate [11]: 2.4 times | total yield of taxane [11]: 74.83 mg/L | yield of baccatin III [11]: 25.85 mg/L | yield of cephalomannine [11]: 15.21 mg/L | yield of taxol [11]: 33.77 mg/L | growth rate [12]: 2.7 times | total yield of taxane [12]: 52.24 mg/L | yield of baccatin III [12]: 17.61 mg/L | yield of cephalomannine [12]: 7.99 mg/L | yield of taxol [12]: 26.64 mg/L | growth rate [13]: 2.4 times | total yield of taxane [13]: 16.36 mg/L | yield of baccatin III [13]: 2.25 mg/L | yield of cephalomannine [13]: 5.79 mg/L | yield of taxol [13]: 8.32 mg/L | growth rate [14]: 2.6 times | total yield of taxane [14]: 1.08 mg/L | yield of baccatin III [14]: 0.16 mg/L | yield of cephalomannine [14]: 0.63 mg/L | yield of taxol [14]: 0.29 mg/L | growth rate [15]: 2.6 times | total yield of taxane [15]: 1.05 mg/L | yield of baccatin III [15]: 0.15 mg/L | yield of taxol [15]: 0.29 mg/L | growth rate [16]: 2.5 times | total yield of taxane [16]: 0.98 mg/L | yield of baccatin III [16]: 0.15 mg/L | yield of cephalomannine [16]: 0.56 mg/L | yield of taxol [16]: 0.27 mg/L

C=C [ethylene]
production of the taxane-type diterpene by the tissues and the cells: greatly inhibits

NCCCNCCCCNCCCN [spermin]
growth rate (1 M added at start, 21 days): 1.0 times | total yield of taxane (1 M added at start, 21 days): 0.22 mg/L | yield of baccatin III (1 M added at start, 21 days): 0.10 mg/L | yield of cephalomannine (1 M added at start, 21 days): 0.04 mg/L | yield of taxol (1 M added at start, 21 days): 0.08 mg/L | growth rate [2]: 1.4 times | total yield of taxane [2]: 1.29 mg/L | yield of baccatin III [2]: 0.39 mg/L | yield of cephalomannine [2]: 0.32 mg/L | yield of taxol [2]: 0.58 mg/L | growth rate [3]: 2.1 times | total yield of taxane [3]: 3.30 mg/L | yield of baccatin III [3]: 0.70 mg/L | yield of cephalomannine [3]: 1.54 mg/L | yield of taxol [3]: 1.06 mg/L | growth rate [4]: 2.0 times | total yield of taxane [4]: 8.22 mg/L | yield of baccatin III [4]: 0.76 mg/L | yield of cephalomannine [4]: 2.68 mg/L | yield of taxol [4]: 4.78 mg/L | growth rate [5]: 2.3 times | total yield of taxane [5]: 11.96 mg/L | yield of baccatin III [5]: 1.64 mg/L | yield of cephalomannine [5]: 4.09 mg/L | yield of taxol [5]: 6.23 mg/L | growth rate [6]: 2.1 times | total yield of taxane [6]: 17.18 mg/L | yield of baccatin III [6]: 2.09 mg/L | yield of cephalomannine [6]: 5.63 mg/L | yield of taxol [6]: 9.46 mg/L | growth rate [13]: 2.4 times | total yield of taxane [13]: 6.89 mg/L | yield of baccatin III [13]: 0.89 mg/L | yield of cephalomannine [13]: 1.97 mg/L | yield of taxol [13]: 4.03 mg/L | growth rate [14]: 2.4 times | total yield of taxane [14]: 4.17 mg/L | yield of baccatin III [14]: 0.68 mg/L | yield of cephalomannine [14]: 1.32 mg/L | yield of taxol [14]: 2.17 mg/L | growth rate [15]: 2.3 times | total yield of taxane [15]: 3.42 mg/L | yield of baccatin III [15]: 0.62 mg/L | yield of cephalomannine [15]: 1.01 mg/L | yield of taxol [15]: 1.79 mg/L | growth rate [16]: 2.9 times | total yield of taxane [16]: 1.86 mg/L | yield of baccatin III [16]: 0.50 mg/L | yield of cephalomannine [16]: 0.64 mg/L | yield of taxol [16]: 0.72 mg/L
